Test results from patent US10519117B2, “Crystal forms of 6-bromo-3-hydroxy-2-pyrazinecarboxamide” (FUJIFILM Toyama Chemical Co., Ltd., priority 2015, dated 2019).

How the values were obtained:
Format in all cases: physicochemical
[1] = Storage stability of crystals of compound D at 60° C. and 75% relative humidity (Test Example 2), crystal form by infrared absorption spectrum; conditions: for change of crystal form on storage (summary in words) / stability on storage (summary in words): up to 8 weeks
Protocol: Type-A crystals, type-B crystals or type-C crystals of compound D were packed in double plastic bags and stored under conditions of 60° C. temperature and 75% relative humidity. Sampling was performed over time, and the crystal form was determined by infrared absorption spectrum measurement.

[2] = Solubility in organic solvents
From the text: Therefore, compound C is isolated according to any method such as neutralization crystallization in an aqueous solvent.

[3] = Standing of crystals at room temperature
From the text: It is difficult to store type-A crystals of compound D for a long period.
Type-C crystals of compound D can be produced by, for example, leaving type-A crystals of compound D to stand at room temperature.
The standing time may be one week to one year.

| change of crystal form on storage (summary in words) ([1]; 60° C., 75% relative humidity) | stability on storage (summary in words) ([1]; 60° C., 75% relative humidity) | solubility in various organic solvents [2] | crystal form after storage ([1]; double plastic bags, 60° C., 75% relative humidity, 8 weeks) | change of crystal form when left to stand [3] | storage stability (general statement) [1] | Compound |
| --- | --- | --- | --- | --- | --- | --- |
| not changed | stable | – | – | – | – | NC(=O)c1nc(Br)cnc1O [Type-C crystals, 6-bromo-3-hydroxy-2-pyrazinecarboxamide] |
| – | – | hardly soluble | – | – | – | NC(=O)c1nccnc1O [compound C, 3-hydroxy-2-pyrazinecarboxamide] |
| changed to type-C crystals | – | – | A + C(major) | converted into type-C crystals | – | NC(=O)c1nc(Br)cnc1O [Type-A crystals, 6-bromo-3-hydroxy-2-pyrazinecarboxamide] |
| not changed | stable | – | – | – | excellent in storage stability | NC(=O)c1nc(Br)cnc1O [Type-B crystals, 6-bromo-3-hydroxy-2-pyrazinecarboxamide] |
